{"source": "patent US20170368082A1", "about": "“FORMULATIONS OF BRINCIDOFOVIR” (priority 2016, published 2017)", "assay": "PBMC PK of CDV-PP following IV and oral suspension BCV", "assay_type": "in vivo, human", "details": "PBMC CDV-PP", "experimental": "Two single dose BCV studies in healthy subjects contributed data for this analysis. The first study was a 2-period crossover bioequivalence study that enrolled 24 subjects who received two formulations of BCV oral suspension 100 mg fasted, one in each period. Data from 12 subjects who had PBMCs collected in Period 1 were included in this analysis; these subjects were 100% female, 31-59 years, and 58-88 kg. The second study, outlined above, enrolled 40 subjects who received IV BCV or placebo. Data from 18 subjects who received BCV 50 mg as either a 2-h or 4-h IV infusion were included in this analysis; these subjects were 100% male, 18-46 years, 64-106 kg. Serial PBMC samples were collected over 14 days and assayed by HPLC-MS-MS. PBMC CDV-PP PK parameters were determined by non-compartmental analysis.", "key": {"[1]": {"details": "BCV 50 mg IV 2 h Infusion, n = 9"}, "[2]": {"details": "BCV 50 mg IV 4 h Infusion, n = 9"}, "[3]": {"details": "BCV 100 mg Oral suspension, n = 12"}}, "data": [{"substance": "cidofovir diphosphate [CDV-PP]", "values": [{"measurement": "AUClast", "setting": "[1]", "value": 1409, "unit": "pg · h/10^6 cells"}, {"measurement": "Cmax", "setting": "[1]", "value": 14.3, "unit": "pg/10^6 cells"}, {"measurement": "AUClast", "setting": "[2]", "value": 963, "unit": "pg · h/10^6 cells"}, {"measurement": "Cmax", "setting": "[2]", "value": 8.41, "unit": "pg/10^6 cells"}, {"measurement": "AUClast", "setting": "[3]", "value": 1107, "unit": "pg · h/10^6 cells"}, {"measurement": "Cmax", "setting": "[3]", "value": 7.68, "unit": "pg/10^6 cells"}]}]}
